According to patent US6339042B1, “Herbicidal N-cyclohexadienyl heteroaryloxyacetamides” (American Cyanamid Co., priority 1999, dated 2002):

Columns and labels:
Details in all cases: three weeks after treatment
Amaranthus tuberculatus [1] = assay: Pre-emergence herbicidal evaluation, AMATA; type: in vivo
Excerpt: (§1) The treated pots are then placed on greenhouse benches, watered and cared for in accordance with conventional greenhouse procedures.

Alopecurus myosuroides [2] = assay: Pre-emergence herbicidal evaluation, ALOMY; type: in vivo
Excerpt: as §1

Apera spica venti [3] = assay: Pre-emergence herbicidal evaluation, APESV; type: in vivo
Excerpt: as §1

Echinochloa crus-galli [4] = assay: Pre-emergence herbicidal evaluation, ECHCG; type: in vivo
Excerpt: as §1

Setaria viridis [5] = assay: Pre-emergence herbicidal evaluation, SETVI; type: in vivo
Excerpt: as §1

Lolium perenne [6] = assay: Pre-emergence herbicidal evaluation, LOLPE; type: in vivo
Excerpt: as §1

Triticum aestivum [7] = assay: Pre-emergence herbicidal evaluation, TRZAW; type: in vivo
Excerpt: as §1

Hordeum vulgare [8] = assay: Pre-emergence herbicidal evaluation, HORVW; type: in vivo
Excerpt: as §1

Zea mays [9] = assay: Pre-emergence herbicidal evaluation, ZEAMX; type: in vivo
Excerpt: as §1

Glycine max [10] = assay: Pre-emergence herbicidal evaluation, GLXMA; type: in vivo
Excerpt: as §1

Oryza sativum [11] = assay: Pre-emergence herbicidal evaluation, ORYSA; type: in vivo
Excerpt: as §1

Amaranthus tuberculatus [12] = assay: Post-emergence herbicidal evaluation, AMATA; type: in vivo
Galium aparine = assay: Post-emergence herbicidal evaluation, GALAP
Alopecurus myosuroides [13] = assay: Post-emergence herbicidal evaluation, ALOMY
Apera spica venti [14] = assay: Post-emergence herbicidal evaluation, APESV
Echinochloa crus-galli [15] = assay: Post-emergence herbicidal evaluation, ECHCG
Description: The compounds of the invention are tested for pre- and post-emergence herbicidal activity.
Each pot is examined three weeks after treatment and phytotoxicity is assessed according to the rating system set forth below.
These acetone solutions are diluted with water and the resulting formulations applied at dosage levels equivalent of about 0.4 to 0.1 kg per hectare of test compound per pot. After spraying the plants are placed on greenhouse benches and are cared for in the usual manner, commensurate with conventional greenhouse practices.

Setaria viridis [16] = assay: Post-emergence herbicidal evaluation, SETVI
Lolium perenne [17] = assay: Post-emergence herbicidal evaluation, LOLPE
Triticum aestivum [18] = assay: Post-emergence herbicidal evaluation, TRZAW
Hordeum vulgare [19] = assay: Post-emergence herbicidal evaluation, HORVW
Zea mays [20] = assay: Post-emergence herbicidal evaluation, ZEAMX
Glycine max [21] = assay: Post-emergence herbicidal evaluation, GLXMA
Oryza sativum [22] = assay: Post-emergence herbicidal evaluation, ORYSA

SMILES: CCc1nnc(OCC(=O)N(CC)C2=CC(C)(C)CC(C)=C2)s1 [Example 6]
- phytotoxicity rating AMATA (Amaranthus tuberculatus [1]; 0.100 kg/ha): 0 (0 - No effect)
- phytotoxicity rating AMATA (Amaranthus tuberculatus [1]; 0.200 kg/ha): 0 (0 - No effect)
- phytotoxicity rating AMATA (Amaranthus tuberculatus [1]; 0.400 kg/ha): 0 (0 - No effect)
- phytotoxicity rating AMATA (Amaranthus tuberculatus [1]; 0.800 kg/ha): 5 (5 - Definite injury)
- phytotoxicity rating ALOMY (Alopecurus myosuroides [2]; 0.200 kg/ha): 5 (5 - Definite injury)
- phytotoxicity rating ALOMY (Alopecurus myosuroides [2]; 0.400 kg/ha): 6 (6 - Herbicidal effect)
- phytotoxicity rating ALOMY (Alopecurus myosuroides [2]; 0.800 kg/ha): 9 (9 - Complete kill)
- phytotoxicity rating APESV (Apera spica venti [3]; 0.100 kg/ha): 0 (0 - No effect)
- phytotoxicity rating APESV (Apera spica venti [3]; 0.200 kg/ha): 0 (0 - No effect)
- phytotoxicity rating APESV (Apera spica venti [3]; 0.400 kg/ha): 0 (0 - No effect)
- phytotoxicity rating APESV (Apera spica venti [3]; 0.800 kg/ha): 9 (9 - Complete kill)
- phytotoxicity rating ECHCG (Echinochloa crus-galli [4]; 0.100 kg/ha): 3 (3 - Moderate effect)
- phytotoxicity rating ECHCG (Echinochloa crus-galli [4]; 0.200 kg/ha): 6 (6 - Herbicidal effect)
- phytotoxicity rating ECHCG (Echinochloa crus-galli [4]; 0.400 kg/ha): 8 (8 - Approaching complete kill)
- phytotoxicity rating ECHCG (Echinochloa crus-galli [4]; 0.800 kg/ha): 9 (9 - Complete kill)
- phytotoxicity rating SETVI (Setaria viridis [5]; 0.200 kg/ha): 5 (5 - Definite injury)
- phytotoxicity rating SETVI (Setaria viridis [5]; 0.400 kg/ha): 8 (8 - Approaching complete kill)
- phytotoxicity rating SETVI (Setaria viridis [5]; 0.800 kg/ha): 9 (9 - Complete kill)
- phytotoxicity rating LOLPE (Lolium perenne [6]; 0.100 kg/ha): 0 (0 - No effect)
- phytotoxicity rating LOLPE (Lolium perenne [6]; 0.200 kg/ha): 0 (0 - No effect)
- phytotoxicity rating LOLPE (Lolium perenne [6]; 0.400 kg/ha): 5 (5 - Definite injury)
- phytotoxicity rating LOLPE (Lolium perenne [6]; 0.800 kg/ha): 7 (7 - Good herbicidal effect)
- phytotoxicity rating TRZAW (Triticum aestivum [7]; 0.100 kg/ha): 0 (0 - No effect)
- phytotoxicity rating TRZAW (Triticum aestivum [7]; 0.200 kg/ha): 0 (0 - No effect)
- phytotoxicity rating TRZAW (Triticum aestivum [7]; 0.400 kg/ha): 0 (0 - No effect)
- phytotoxicity rating TRZAW (Triticum aestivum [7]; 0.800 kg/ha): 2 (2 - Slight effect)
- phytotoxicity rating HORVW (Hordeum vulgare [8]; 0.100 kg/ha): 0 (0 - No effect)
- phytotoxicity rating HORVW (Hordeum vulgare [8]; 0.200 kg/ha): 0 (0 - No effect)
- phytotoxicity rating HORVW (Hordeum vulgare [8]; 0.400 kg/ha): 1 (1 - Trace effect)
- phytotoxicity rating HORVW (Hordeum vulgare [8]; 0.800 kg/ha): 3 (3 - Moderate effect)
- phytotoxicity rating ZEAMX (Zea mays [9]; 0.100 kg/ha): 0 (0 - No effect)
- phytotoxicity rating ZEAMX (Zea mays [9]; 0.200 kg/ha): 0 (0 - No effect)
- phytotoxicity rating ZEAMX (Zea mays [9]; 0.400 kg/ha): 0 (0 - No effect)
- phytotoxicity rating ZEAMX (Zea mays [9]; 0.800 kg/ha): 0 (0 - No effect)
- phytotoxicity rating GLXMA (Glycine max [10]; 0.100 kg/ha): 0 (0 - No effect)
- phytotoxicity rating GLXMA (Glycine max [10]; 0.200 kg/ha): 0 (0 - No effect)
- phytotoxicity rating GLXMA (Glycine max [10]; 0.400 kg/ha): 0 (0 - No effect)
- phytotoxicity rating GLXMA (Glycine max [10]; 0.800 kg/ha): 0 (0 - No effect)
- phytotoxicity rating ORYSA (Oryza sativum [11]; 0.100 kg/ha): 0 (0 - No effect)
- phytotoxicity rating ORYSA (Oryza sativum [11]; 0.200 kg/ha): 0 (0 - No effect)
- phytotoxicity rating ORYSA (Oryza sativum [11]; 0.400 kg/ha): 3 (3 - Moderate effect)
- phytotoxicity rating ORYSA (Oryza sativum [11]; 0.800 kg/ha): 7 (7 - Good herbicidal effect)
- phytotoxicity rating AMATA (Amaranthus tuberculatus [12]; 0.100 kg/ha): 0 (0 - No effect)
- phytotoxicity rating AMATA (Amaranthus tuberculatus [12]; 0.200 kg/ha): 0 (0 - No effect)
- phytotoxicity rating AMATA (Amaranthus tuberculatus [12]; 0.400 kg/ha): 0 (0 - No effect)
- phytotoxicity rating GALAP (Galium aparine; 0.100 kg/ha): 0 (0 - No effect)
- phytotoxicity rating GALAP (Galium aparine; 0.200 kg/ha): 0 (0 - No effect)
- phytotoxicity rating GALAP (Galium aparine; 0.400 kg/ha): 4 (4 - Injury)
- phytotoxicity rating ALOMY (Alopecurus myosuroides [13]; 0.100 kg/ha): 0 (0 - No effect)
- phytotoxicity rating ALOMY (Alopecurus myosuroides [13]; 0.200 kg/ha): 4 (4 - Injury)
- phytotoxicity rating ALOMY (Alopecurus myosuroides [13]; 0.400 kg/ha): 8 (8 - Approaching complete kill)
- phytotoxicity rating APESV (Apera spica venti [14]; 0.100 kg/ha): 0 (0 - No effect)
- phytotoxicity rating APESV (Apera spica venti [14]; 0.200 kg/ha): 0 (0 - No effect)
- phytotoxicity rating APESV (Apera spica venti [14]; 0.400 kg/ha): 1 (1 - Trace effect)
- phytotoxicity rating ECHCG (Echinochloa crus-galli [15]; 0.100 kg/ha): 0 (0 - No effect)
- phytotoxicity rating ECHCG (Echinochloa crus-galli [15]; 0.200 kg/ha): 0 (0 - No effect)
- phytotoxicity rating ECHCG (Echinochloa crus-galli [15]; 0.400 kg/ha): 0 (0 - No effect)
- phytotoxicity rating SETVI (Setaria viridis [16]; 0.100 kg/ha): 0 (0 - No effect)
- phytotoxicity rating SETVI (Setaria viridis [16]; 0.200 kg/ha): 0 (0 - No effect)
- phytotoxicity rating SETVI (Setaria viridis [16]; 0.400 kg/ha): 0 (0 - No effect)
- phytotoxicity rating LOLPE (Lolium perenne [17]; 0.100 kg/ha): 0 (0 - No effect)
- phytotoxicity rating LOLPE (Lolium perenne [17]; 0.200 kg/ha): 0 (0 - No effect)
- phytotoxicity rating LOLPE (Lolium perenne [17]; 0.400 kg/ha): 0 (0 - No effect)
- phytotoxicity rating TRZAW (Triticum aestivum [18]; 0.100 kg/ha): 0 (0 - No effect)
- phytotoxicity rating TRZAW (Triticum aestivum [18]; 0.200 kg/ha): 0 (0 - No effect)
- phytotoxicity rating TRZAW (Triticum aestivum [18]; 0.400 kg/ha): 1 (1 - Trace effect)
- phytotoxicity rating HORVW (Hordeum vulgare [19]; 0.100 kg/ha): 0 (0 - No effect)
- phytotoxicity rating HORVW (Hordeum vulgare [19]; 0.200 kg/ha): 0 (0 - No effect)
- phytotoxicity rating HORVW (Hordeum vulgare [19]; 0.400 kg/ha): 0 (0 - No effect)
- phytotoxicity rating ZEAMX (Zea mays [20]; 0.100 kg/ha): 0 (0 - No effect)
- phytotoxicity rating ZEAMX (Zea mays [20]; 0.200 kg/ha): 0 (0 - No effect)
- phytotoxicity rating ZEAMX (Zea mays [20]; 0.400 kg/ha): 0 (0 - No effect)
- phytotoxicity rating GLXMA (Glycine max [21]; 0.100 kg/ha): 3 (3 - Moderate effect)
- phytotoxicity rating GLXMA (Glycine max [21]; 0.200 kg/ha): 4 (4 - Injury)
- phytotoxicity rating GLXMA (Glycine max [21]; 0.400 kg/ha): 4 (4 - Injury)
- phytotoxicity rating ORYSA (Oryza sativum [22]; 0.100 kg/ha): 0 (0 - No effect)
- phytotoxicity rating ORYSA (Oryza sativum [22]; 0.200 kg/ha): 1 (1 - Trace effect)
- phytotoxicity rating ORYSA (Oryza sativum [22]; 0.400 kg/ha): 2 (2 - Slight effect)
